“Also recorded” adds a separate entry of the source. Where two headings read alike, the source gives them in different places.
What was measured:
[1] = system: LPS-induced acute lung injury in mice; design: species or system C57 BL/6 male mice; settings: mouse, in vivo
[2] = system: LPS-induced acute lung injury in mice; settings: mouse, in vivo; cited from earlier work
[3] = system: A549 cells; type: cell-based
[4] = system: A549 cells; type: cell-based; remark: listed apart in the source
[5] = system: A549 cells; type: cell-based; remark: listed apart in the source
[6] = system: 3′ UTR region of RELA gene; type: cell-based
[7] = system: A549 cells; type: cell-based; remark: listed apart in the source
[8] = system: A549 cells; type: cell-based; remark: listed apart in the source
[9] = system: HEK293T cells; type: cell-based
[10] = system: A549 cells; type: cell-based; remark: listed apart in the source
[11] = system: MRCS cells; type: cell-based
[12] = system: LPS-induced acute lung injury in mice; design: species or system C57 BL/6 male mice; settings: mouse, in vivo; remark: listed apart in the source
[13] = system: HeLa cells; type: cell-based
[14] = system: poly(I:C)-induced acute lung injury mouse model; design: species or system C57 BL/6 male mice; settings: in vivo
[15] = system: 293T cell, HUVEC cell, HCT-116 cell, MKN-45 cell, MRCS cell, U397 cell and ESF-1 cell; type: cell-based
[16] = system: murine organs; design: species or system C57 BL/6 male mice; settings: mouse, in vivo
[17] = system: A549 cells; type: cell-based; remark: listed apart in the source
[18] = system: 3′ UTR region of COLLAGEN3A1 gene; type: cell-based
[19] = system: 293T cells; type: cell-based
[20] = system: A549 cells; type: cell-based; remark: listed apart in the source
[21] = system: A549 cells; type: cell-based; remark: listed apart in the source

Compound | effect on preventing lung injury (IL-6 in alveolar lavage fluid) [1] | cell-penetrating peptide function compared with positive control TAT [3] | ability to carry small RNA compared with TAT at the same concentration [4] | carrying FAM-labeled small RNA into cells [4] | ability to carry PGY-dsRNA-6 compared with positive control TAT [6] | carrying PGY-dsRNA-6 into cells and fulfilling its function (luciferase reporter) [6] | carrying Cy3-labeled small RNA into cells [8] | effect compared with transfection reagent RNAiMax [8] | cell entry [3] | cell entry after 5 min incubation [3] | cell entry at lower concentrations [3] | cell entry effect compared with TAT positive control [3] | cell entry effect compared with existing cell-penetrating peptides (Table 4) [3] | entry effect compared with other C-terminally truncated polypeptides [3] | carrying NS1-GFP plasmid into cells and GFP expression [9] | ability to carry small RNA into cells compared with the transfection reagent RNAiMax group, qPCR [10] | ability to carry small RNA into cells, qPCR [10] | cell penetration properties [11] | entry of miR1246 antagomir into lung tissue of mice [12] | entry effect compared with other fragments in different cell lines [15] | further results
COc1cc(C2Oc3cc([C@H]4Oc5cc(O)cc(O)c5C(=O)[C@@H]4O)ccc3OC2CO)ccc1O (some centres unmarked) [silybin, reference compound] | had a tendency to prevent lung injury at this dose | – | – | – | – | – | – | – | – | – | – | – | – | – | – | – | – | – | – | – | effect on LPS-induced acute lung injury in mice [2]: can effectively reduce the LPS-induced acute lung injury in mice
DRLFFKCIYRRLK [Jilin-2004(H5N1)-M2-44-56] | – | stronger than that of the positive control TAT | significantly stronger | can all carry small RNA into cells | stronger than that of the positive control TAT | could all carry PGY-dsRNA-6 into cells and fulfill its function | can carry small RNA into cells | stronger than that of the transfection reagent RNAiMax | – | – | – | – | – | – | – | – | – | – | – | – | ability to carry proteins into the cell compared with TAT at the same concentration [5]: significantly stronger; carrying β-galactosidase protein into the cell [5]: could carry β-galactosidase protein into the cell; cell entry of polypeptide carrying GFP protein [7]: observed; effect of carrying GFP protein compared with positive control TAT [7]: stronger than that of the positive control TAT
DRLFFKCIYRRLKYGLKR [Jilin-2004(H5N1)-M2-44-61] | had no effect on preventing lung injury | stronger than that of the positive control TAT | significantly stronger | can all carry small RNA into cells | stronger than that of the positive control TAT | could all carry PGY-dsRNA-6 into cells and fulfill its function | can carry small RNA into cells | stronger than that of the transfection reagent RNAiMax | entered A549 cells | cell entry could be detected; also recorded: the entry into the cell was observed | could still enter A549 cells | stronger than that of the TAT polypeptide | significantly better cell entry effects than existing cell-penetrating peptides | even better entry effects than other polypeptides | could carry NS1-GFP plasmid into HEK293 cells, and GFP protein was expressed in the nucleus | stronger than the transfection reagent RNAiMax group | all had the ability to carry small RNA into cells | consistent with the results obtained using A549 cells | could improve the entry of miR1246 antagomir into lung tissue of mice | even better entry effects | amount of cell entry versus incubation duration [3]: increased as the incubation duration increased; cell entry at 30 min [3]: had a strong entry effect; cell entry effect compared with TAT at the same time points [3]: much stronger than that of the positive control TAT polypeptide; cell entry effect compared with the other three penetrating polypeptides [3]: even better cell entry effect; difference in entry effects between 1 h, 3 h and 6 h [3]: little difference in entry effects; rank of ability to carry small RNA in the cell experiments [10]: the strongest ability to carry small RNA in the cell experiments; ability to carry FAM-labeled small RNA compared with transfection reagent RNAiMax [4]: stronger than that of the transfection reagent RNAiMax; cell penetration properties [13]: consistent with the results obtained using A549 cells; ability to carry small RNA in murine organs compared with TAT [14]: stronger than that of TAT; cell-penetrating peptide effect compared with transfection reagent RNAiMax [6]: close to the transfection reagent RNAiMax; ability to deliver small RNA compared with TAT [16]: significantly stronger than that of TAT; murine organs or tissues in which small RNA was detected [16]: detected in 8 murine organs or tissues, including heart, liver, spleen, lung, kidney, stomach, small intestine and thymus; delivery of small RNAs to murine organs ([16]; ip): could effectively deliver small RNAs (PGY-sRNA-23 and PGY-sRNA-26) to murine organs; carrying Cy3-labeled small RNA into cells (super high resolution microscope) [17]: can carry Cy3-labeled small RNA into A549 cells; effect compared with RNAiMax or TAT (super high resolution microscope) [17]: stronger than that of the transfection reagent RNAiMax or of TAT; ability to carry HJT-sRNA-m7 compared with positive control TAT [18]: stronger than that of the positive control TAT; carrying HJT-sRNA-m7 into cells and fulfilling its function (luciferase reporter) [18]: could carry HJT-sRNA-m7 into cells and fulfill its function; cell-penetrating peptide effect compared with transfection reagent RNAiMax [18]: close to the transfection reagent RNAiMax
DRLFFKCIYRRLKYGLKRGPST [Jilin-2004(H5N1)-M2-44-65] | – | stronger cell-penetrating peptide functions than that of the positive control TAT | – | – | – | – | can carry small RNA into cells | stronger than that of the transfection reagent RNAiMax | – | – | – | – | significantly better cell entry effects than existing cell-penetrating peptides | even better entry effects than other polypeptides | – | stronger than the transfection reagent RNAiMax group | all had the ability to carry small RNA into cells | – | – | even better entry effects | cell-penetrating peptide function compared with positive control TAT [11]: stronger than that of the positive control TAT; cell-penetrating peptide function compared with positive control TAT [19]: stronger than that of the positive control TAT; carrying Cy3-labeled small RNA into cells (super high resolution microscope) [17]: can carry Cy3-labeled small RNA into A549 cells; effect compared with RNAiMax or TAT (super high resolution microscope) [17]: stronger than that of the transfection reagent RNAiMax or of TAT
GRKKRRQRRRPPQ [TAT, reference compound] | – | – | – | – | – | – | – | – | did not show cell entry | the entry into the cell was observed | – | – | – | – | almost no expression of GFP fluorescent protein | – | – | – | almost no effect | – | cell entry at 1 h [3]: the effect was obvious; cell entry of rhodamine-labeled polypeptide [20]: could all enter A549 cells; ability to carry small RNA (PGY-sRNA-26) into cells, qPCR [10]: very weak
RLFFKCIYRRLKYGLKRG [Jilin-2004(H5N1)-M2-45-62] | – | stronger than that of the positive control TAT | significantly stronger | can all carry small RNA into cells | stronger than that of the positive control TAT | could all carry PGY-dsRNA-6 into cells and fulfill its function | – | – | still had a significant cell entry effect; also recorded: entered A549 cells | – | could still enter A549 cells | stronger than that of the TAT polypeptide | significantly better cell entry effects than existing cell-penetrating peptides | – | could carry NS1-GFP plasmid into HEK293 cells, and GFP protein was expressed in the nucleus | stronger than the transfection reagent RNAiMax group | all had the ability to carry small RNA into cells | consistent with the results obtained using A549 cells | – | even better entry effects | cell entry of FITC-labeled polypeptide [3]: could achieve significant A549 cell entry at all concentrations tested; cell-penetrating peptide effect [3]: a good cell-penetrating peptide effect; entry effect compared with FITC-labeled TAT (positive control) [3]: much stronger than FITC-labeled TAT polypeptide; cell-penetrating peptide function (confocal imaging) [20]: all had cell-penetrating peptide functions; ability to carry small RNA (PGY-sRNA-26) into cells, qPCR [10]: had the ability to carry small RNA into the cells; ability to carry small RNA compared with TAT at the same concentration [21]: significantly stronger; carrying Cy3-labeled small RNA into cells [21]: can carry small RNA into cells; cell penetration properties [13]: consistent with the results obtained using A549 cells

Source: US20220169680A1 (priority 2018, published 2022)
